Assays:
Assay type in all cases: cell-based, murine
[1] = tested on: Vav3−/− p190-BCR-ABL1 BM leukemic cells expressing ΔCH-mutant Vav3; assay: Vav3 rescue, cell cycle analysis; details: even at the highest concentration
Excerpt: FIG. 15: Expression of transgenic Vav3 re-sensitizes Vav3-deficient cells to IODVA1. (A) Vav3 domain structure, calponin-homology (CH), acidic region (Ac), Dbl-homology (DH), pleckstrin-homology (PH), zinc finger (ZF), Src-homology 2 and 3 (SH2/SH3). (B) Representative histogram data of the cell cycle analysis of wild-type (Vav3^+/+) and Vav3-deficient (Vav3^−/−) p190-BCR-ABL1 leukemic bone marrow cells expressing empty vector, full-length Vav3 or ΔCH mutant and treated with vehicle control (black) or IODVA1 at 5 (red) or 10 μM (dark grey) for 18 h. (C) Quantification of the average number of colonies made by bone marrow wild-type and Vav3^−/− p190-BCR-ABL1 leukemic bone marrow cells expressing empty vector, full-length Vav3 or ΔCH mutant and treated with vehicle control (black) or IODVA1 at 1 (light salmon), 5 (red) and 10 μM (dark grey). *** p≤0.001.
Next, we reasoned that if IODVA1 targets Vav3, rescuing Vav3^−/− leukemic cells by expressing exogenous Vav3 should re-sensitize those cells to IODVA1. We expressed full-length Vav3 or the dominant active ΔCH-mutant (FIG. 15A) in Vav3^−/− p190-BCR-ABL1-transformed murine bone marrow leukemic cells and analyzed changes in cell cycle 18 h post-treatment with vehicle control or IODVA1 (FIG. 15B). Expressing full-length Vav3 but not the empty vector re-sensitized the Vav3^−/− BM leukemic cells to IODVA1 as shown by a 5.8-fold increase in apoptosis (p=0.0005) and a 15% decrease (p=0.08) in cells in the S-phase at 10 μM.
For Vav3 rescue experiments, low density bone marrow cells from wild-type ([…]) or Vav3^−/− mice were transduced with bicistronic retroviral vector encoding p190 BCR-ABL1-IRES-YFP (yellow fluorescent protein) and YFP^+ cells were sorted 48 h post-transduction. […] Cell cycle was analyzed at 18 h post BrdU incorporation.
Cell cycle was analyzed by using in vitro incorporation of 5-Bromo-2-deoxyuridine using Brdu Flow kit (BD Pharmingen, Cat #552598). […] DNAse treatment was done according to the instructions and stained with anti BrdU and apoptosis was analyzed by 7-AAD staining through flow cytometry analysis.

[2] = tested on: effector phosphorylation in empty vector expressing Ba/F3 cells; assay: Phospho-flow cytometry of effectors; details: 3 μM, 30 min
Experimental: (§1) FIG. 13: IODVA1 decreases Rac activation and signaling. (A) Ba/F3 cells expressing p190-BCR-ABL1 were treated with IODVA1 (3 μM) as indicated and levels of active Rac (Rac-GTP) were assessed by pull-down using GST-PAK-GBD, followed by immunoblotting (upper panel) and densitometric quantification (lower panel). (B) Flow-cytometry analysis of pJNK, pS6, p4EBP, pPAK1, and pAKT of Ba/F3 cells expressing Mieg3 empty vector (light and dark blue) or p190-BCR-ABL1 (light and dark salmon) and treated with vehicle control or IODVA1 (3 μM) for 30 min. (C) Representative histogram data of the cell cycle analysis of Ba/F3 cells expressing p190-BCR-ABL and treated with vehicle control or IODVA1 (1, 3, and 10 μM) for 20 h. (D) Quantification of the average number of colonies of bone marrow wild-type (black) and Rac1^Δ/Δ+Rac2^−/− (red) p190-BCR-ABL1 leukemic cells treated with vehicle control or IODVA1 (IO1, 1 μM). ns—not significant, * p<0.05, ** p<0.01, *** p<0.001. (E) As in FIG. 13A, but cells were incubated for a fixed amount of time (1 h) at the indicated IODVA1 concentrations. (F) Ba/F3 cells expressing p190-BCR-ABL1 were treated with IODVA1 (3 μM) and lysed at the indicated times. Cell lysates were separated on SDS-PAGE and immunoblotted for pPAK(T423), pBAD(S136), and BAD. (G) Ba/F3 cells expressing p190-BCR-ABL1 were treated with IODVA1 (3 μM) and levels of active Cdc42 (Cdc42-GTP) and Rho (Rho-GTP) were assessed by pull-down at the indicated times using GST-PAK-GBD and GST-Rhotekin respectively, followed by immunoblotting (left panel) and densitometric quantification (right panel). (H) Morphology of GFP^+ leukemic colonies (left panel). Western blot analysis of Rac1 and Rac2 protein expression in Rac1^Δ/Δ+Rac2^−/− cells post poly-I:C injections (right panel). (I) Intrinsic (blue line) and p50GAP-stimulated GTP-hydrolysis reaction in the presence (red line) or absence (black line) of IODVA1. (J) Sedimentation assay of liposomal Rac1-GDP in the presence of IODVA1 (2 μM). Rac1 was visualized by immunoblotting from pellet (p) and soluble (s) fractions. (K) Stopped-flow measurement of GDI (10 μM) interaction with fluorescently-labelled Rac1 in the absence (black line) or presence (orange line) of IODVA1.
(§2) Expression of BCR-ABL1 increases the phosphorylation levels of JNK, S6, 4EBP, PAK, and AKT by more than 2.5 times (FIG. 13B). IODVA1 decreases the phosphorylation levels of JNK by 1.8 (p=0.015), S6 by 1.5 (p=0.05), 4EBP by 3.0 (p=0.009), and PAK by 6.1 (p=0.004) fold, respectively. […] The decrease in JNK, S6, and 4EBP activity in IODVA1-treated Ba/F3 cells mirrors the decrease observed in LDBM cells from IODVA1-treated p210-T315I mice in pharmacodynamics studies (FIG. 12C). Together, our in vitro and in vivo data are consistent with IODVA1 targeting activation of Rac and its downstream signaling.

[3] = tested on: pJNK, pS6, p4EBP, pPAK1, pAKT in p190-BCR-ABL expressing Ba/F3 cells; assay: Phospho-flow cytometry of effectors; details: 3 μM, 30 min
Experimental: as §1, §2

OC1(c2ccccn2)N=C(Nc2nc3ccccc3[nH]2)N=C1c1ccccn1 (stereo not shown) [IODVA1, (Z)-2-((1H-benzo[d]imidazol-2-yl)imino)-4,5-di(pyridin-2-yl)-2,5-dihydro-1H-imidazol-5-ol]
re-sensitization to IODVA1 [1]: did not re-sensitize
decrease in the phosphorylation levels of effectors [2]: but not empty vector-expressing cells
phosphorylation levels of AKT ([3]; regardless of BCR-ABL status): did not affect
decrease in phosphorylation level of PAK ([3]; p=0.004): 6.1 fold
decrease in phosphorylation level of 4EBP ([3]; p=0.009): 3.0 fold
decrease in phosphorylation level of JNK ([3]; p=0.015): 1.8 fold
decrease in phosphorylation level of S6 ([3]; p=0.05): 1.5 fold

Source: patent US11564913B2, “Compositions and methods for treating cancer” (Children's Hospital Medical Center, priority 2019, dated 2023)
